Assay results published in the supplement of paper PMC11451515.

How the values were obtained:
Conditions in all cases: 48 h
NOMO1 [1] = test: AUC of viability dose-response curve (% viability x log10 dose units); higher = less sensitive
Summary of the method: (§1)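 Leukemia cells adapted to each medium were seeded at 500 or 1000 cells/well in 1536-well plates and dosed with library compounds in DMSO at 11 threefold doses from 47 μM to 0.79 nM for 48 h at 37°C. CellTiter-Glo One luminescence was normalised per plate to DMSO and cell-free wells, then fitted with a four-parameter log-logistic model over log10 doses. Area under the curve was taken from this fit by the trapezoidal rule, with curves above full viability scaled and curves failing quality control removed.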

SEM cells [2] = test: as above
Summary of the method: as §1

P12-Ichikawa [3] = test: as above
Summary of the method: as §1

NOMO1 [4] = test: cell viability relative to DMSO control; higher = less cytotoxic
Summary of the method: (§2)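 Leukemia cells (NOMO1 or SEM, 500 cells/well; P12-Ichikawa, 1000 cells/well) were seeded in 5 μl in 1536-well plates after at least four passages of adaptation to each medium. They received library compounds in DMSO by pin dosing, 11 threefold points from 47 μM to 0.79 nM. Luminescence with CellTiter-Glo One was read after 48 h at 37°C. Viability is stated per plate relative to DMSO wells, with cell-free wells as background.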

SEM cells [5] = test: as above
Summary of the method: as §2

P12-Ichikawa [6] = test: as above
Summary of the method: as §2

Cc1cnc(Nc2ccc(OCCN3CCCC3)cc2)nc1Nc1cccc([S+](=O)([O-])NC(C)(C)C)c1
AUC of viability dose-response curve
Conditions	NOMO1 [1]	P12-Ichikawa [3]	SEM cells [2]
HPLM + 10% dialyzed FBS	477	469	427
RPMI 5 mM glucose + 10% FBS	470	471	458
RPMI 5 mM glucose + 10% dialyzed FBS	473	468	447

cell viability [%]
Conditions	NOMO1 [4]	P12-Ichikawa [6]	SEM cells [5]
HPLM + 10% dialyzed FBS, 0.000781 µM	78.8	100	83.6
HPLM + 10% dialyzed FBS, 0.00234 µM	102	108	93.2
HPLM + 10% dialyzed FBS, 0.00702 µM	109	110	93.9
HPLM + 10% dialyzed FBS, 0.0211 µM	116	110	88.2
HPLM + 10% dialyzed FBS, 0.0632 µM	117	115	96.3
HPLM + 10% dialyzed FBS, 0.19 µM	126	111	89.5
HPLM + 10% dialyzed FBS, 0.569 µM	102	119	96.7
HPLM + 10% dialyzed FBS, 1.71 µM	114	114	102
HPLM + 10% dialyzed FBS, 5.12 µM	110	112	96.1
HPLM + 10% dialyzed FBS, 15.4 µM	100	108	68.2
HPLM + 10% dialyzed FBS, 46.1 µM	84.3	112	67.2
RPMI 5 mM glucose + 10% FBS, 0.000781 µM	105	110	88.9
RPMI 5 mM glucose + 10% FBS, 0.00234 µM	107	116	95.8
RPMI 5 mM glucose + 10% FBS, 0.00702 µM	104	110	95.4
RPMI 5 mM glucose + 10% FBS, 0.0211 µM	90.3	119	111
RPMI 5 mM glucose + 10% FBS, 0.0632 µM	108	120	104
RPMI 5 mM glucose + 10% FBS, 0.19 µM	110	116	106
RPMI 5 mM glucose + 10% FBS, 0.569 µM	98	120	108
RPMI 5 mM glucose + 10% FBS, 1.71 µM	97.3	117	88.5
RPMI 5 mM glucose + 10% FBS, 5.12 µM	114	110	89.9
RPMI 5 mM glucose + 10% FBS, 15.4 µM	92.7	108	90.1
RPMI 5 mM glucose + 10% FBS, 46.1 µM	102	112	77.2
RPMI 5 mM glucose + 10% dialyzed FBS, 0.000781 µM	87.5	91.8	83.5
RPMI 5 mM glucose + 10% dialyzed FBS, 0.00234 µM	106	101	97.3
RPMI 5 mM glucose + 10% dialyzed FBS, 0.00702 µM	99.6	109	98.8
RPMI 5 mM glucose + 10% dialyzed FBS, 0.0211 µM	105	106	106
RPMI 5 mM glucose + 10% dialyzed FBS, 0.0632 µM	100	117	98.2
RPMI 5 mM glucose + 10% dialyzed FBS, 0.19 µM	102	109	99.2
RPMI 5 mM glucose + 10% dialyzed FBS, 0.569 µM	103	111	106
RPMI 5 mM glucose + 10% dialyzed FBS, 1.71 µM	102	118	98.1
RPMI 5 mM glucose + 10% dialyzed FBS, 5.12 µM	103	110	82.4
RPMI 5 mM glucose + 10% dialyzed FBS, 15.4 µM	102	110	84.5
RPMI 5 mM glucose + 10% dialyzed FBS, 46.1 µM	100	97.6	71.9

Clc1ccc(COC(Cn2ccnc2)c2ccc(Cl)cc2Cl)cc1 (stereo unspecified)
AUC of viability dose-response curve
Conditions	NOMO1 [1]	P12-Ichikawa [3]	SEM cells [2]
HPLM + 10% dialyzed FBS	473	477	408
RPMI 5 mM glucose + 10% FBS	473	463	468
RPMI 5 mM glucose + 10% dialyzed FBS	470	452	431

cell viability [%]
Conditions	NOMO1 [4]	P12-Ichikawa [6]	SEM cells [5]
HPLM + 10% dialyzed FBS, 0.000781 µM	118	110	72.9
HPLM + 10% dialyzed FBS, 0.00234 µM	119	109	82.3
HPLM + 10% dialyzed FBS, 0.00702 µM	105	115	89.9
HPLM + 10% dialyzed FBS, 0.0211 µM	115	117	97.2
HPLM + 10% dialyzed FBS, 0.0632 µM	111	124	83.6
HPLM + 10% dialyzed FBS, 0.19 µM	104	121	84.7
HPLM + 10% dialyzed FBS, 0.569 µM	111	120	80.8
HPLM + 10% dialyzed FBS, 1.71 µM	127	117	88.9
HPLM + 10% dialyzed FBS, 5.12 µM	132	114	92.5
HPLM + 10% dialyzed FBS, 15.4 µM	118	116	87.9
HPLM + 10% dialyzed FBS, 46.1 µM	93.2	106	80.5
RPMI 5 mM glucose + 10% FBS, 0.000781 µM	107	116	116
RPMI 5 mM glucose + 10% FBS, 0.00234 µM	104	117	110
RPMI 5 mM glucose + 10% FBS, 0.00702 µM	110	114	121
RPMI 5 mM glucose + 10% FBS, 0.0211 µM	123	126	114
RPMI 5 mM glucose + 10% FBS, 0.0632 µM	111	129	119
RPMI 5 mM glucose + 10% FBS, 0.19 µM	109	123	102
RPMI 5 mM glucose + 10% FBS, 0.569 µM	121	121	119
RPMI 5 mM glucose + 10% FBS, 1.71 µM	117	130	107
RPMI 5 mM glucose + 10% FBS, 5.12 µM	119	126	113
RPMI 5 mM glucose + 10% FBS, 15.4 µM	110	104	107
RPMI 5 mM glucose + 10% FBS, 46.1 µM	102	91.3	82
RPMI 5 mM glucose + 10% dialyzed FBS, 0.000781 µM	114	108	76.8
RPMI 5 mM glucose + 10% dialyzed FBS, 0.00234 µM	112	114	78.8
RPMI 5 mM glucose + 10% dialyzed FBS, 0.00702 µM	103	123	113
RPMI 5 mM glucose + 10% dialyzed FBS, 0.0211 µM	121	113	85
RPMI 5 mM glucose + 10% dialyzed FBS, 0.0632 µM	115	124	92.2
RPMI 5 mM glucose + 10% dialyzed FBS, 0.19 µM	125	124	88.7
RPMI 5 mM glucose + 10% dialyzed FBS, 0.569 µM	121	120	111
RPMI 5 mM glucose + 10% dialyzed FBS, 1.71 µM	120	107	94.2
RPMI 5 mM glucose + 10% dialyzed FBS, 5.12 µM	114	103	101
RPMI 5 mM glucose + 10% dialyzed FBS, 15.4 µM	121	96.8	79.7
RPMI 5 mM glucose + 10% dialyzed FBS, 46.1 µM	83.6	85.7	74.5
